Values quoted from earlier work as cited in PubChem BioAssay AID1259409 (Chemical Carcinogenesis Research Information System (CCRIS), 2018).

Tested on: rodent chemically induced tumor inhibition, incidence and multiplicity
Test: CCRIS tumor inhibitor studies
Details: for outcome: Dose [Inhibitor]: 0, Strain/Sex: SENCAR/FEMALE, Target Tissue: Type of Lesion: SKIN: TUMOR, Dose [Carcinogen]: 40 NMOL IN 0.2 ML ACETONE ONCE

CCC(C)SSC(C)CC (stereo unspecified)
tumour outcome (control, treated, inhibition, significance) (Carcinogen: BENZO[A]PYENE, 50-32-8, Dose [Inhibitor]: 0.06 MMOL/G DIET DAILY FOR 6 WK CONCURRENT WITH CARCINOGEN TREATMENT FOLLOWED BY 14 WK ON STANDARD DIET (STUDY DURATION:, Route [Inhibitor]: ORAL, Species: MOUSE, Strain/Sex: ICR/FEMALE, Target Tissue: Type of Lesion: FORESTOMACH: NEOPLASM, Dose [Carcinogen]: 0.3 MG/G IN DIET DAILY FOR 6 WK, Promoter: NONE USED): 40%, 41%, -3%, not significant

CCOC(=O)/C=C(C)/C=C/C=C(C)/C=C/c1c(C)cc(O)c(C)c1C
tumour outcome (control, treated, inhibition, significance) (Carcinogen: 7,12-DIMETHYLBENZ[A]ANTHRACENE, 57-97-6, Dose [Inhibitor]: 140 NMOL IN 0.2 ML ACETONE 2/WK (D 1 AND D 4 OF EACH WK) 1 HR BEFORE EACH PROMOTER APPLICATION STARTING 14 D AFTER CARCI, Route [Inhibitor]: DERMAL, Species: MOUSE, Strain/Sex: CD-1/FEMALE, Target Tissue: Type of Lesion: SKIN: PAPILLOMA, Dose [Carcinogen]: 0.2 UMOL IN 0.2 ML ACETONE ONCE, Promoter: 12-O-TETRADECANOYLPHORBOL-13-ACETATE, 16561-29-8): 90%, 95%, -6%, not significant

CNC[C@H](O)c1ccc(O)c(O)c1
tumour outcome (control, treated, inhibition, significance) (Carcinogen: 4-(METHYLNITROSAMINO)-1-(3-PYRIDLY)-1-BUTANONE [64091-91-4], Dose [Inhibitor]: 1 MG/KG BW 3X/WK FOR 31 WK BEGINNING 1 WK POST LAST CARCINOGEN DOSE (STUDY DURATION: 52 WK), Route [Inhibitor]: SUBCUTANEOUS, Species: HAMSTER, Strain/Sex: SYRIAN/MALE, Target Tissue: Type of Lesion: LUNG: TUMOR, Dose [Carcinogen]: 10 MG/KG BW 3X/WK FOR 20 WK (STUDY DURATION: 52 WK), Promoter: NONE): 12/15 (80.0%), 15/15 (100.0%), -25%, not calculated
tumour outcome (control, treated, inhibition, significance) (Carcinogen: 4-(METHYLNITROSAMINO)-1-(3-PYRIDLY)-1-BUTANONE [64091-91-4], Dose [Inhibitor]: 1 MG/KG BW 3X/WK FOR 31 WK BEGINNING 1 WK POST LAST CARCINOGEN DOSE (STUDY DURATION: 52 WK), Route [Inhibitor]: SUBCUTANEOUS, Species: HAMSTER, Strain/Sex: SYRIAN/MALE, Target Tissue: Type of Lesion: NASAL CAVITY: TUMOR, Dose [Carcinogen]: 10 MG/KG BW 3X/WK FOR 20 WK (STUDY DURATION: 52 WK), Promoter: NONE): 4/15 (26.7%), 3/15 (20.0%), 25%, not calculated

CC1(C)[C@@H](O)CC[C@]2(C)[C@H]3C(=O)C=C4[C@H]5C[C@@](C)(C(=O)O)CC[C@]5(C)CC[C@@]4(C)[C@]3(C)CC[C@@H]12
outcome (Carcinogen: 7,12-DIMETHYLBENZ[A]ANTHRACENE, 57-97-6, 10 UMOL IN 0.2 ML DMSO/ACETONE (1:2) 1/D BEGINNING 7 D PRIOR TO CARCINOGEN DOSE (STUDY DURATION: 16 WK), Route [Inhibitor]: DERMAL, Species: MOUSE): 100%, 65%, 35%, not calculated at 9 wk; 100%, 100%, 0%, not significant at 16 wk
outcome (Carcinogen: 7,12-DIMETHYLBENZ[A]ANTHRACENE, 57-97-6, 30 UMOL IN DMSO/ACETONE (1:2) 30 MIN PRIOR TO EACH PROMOTER DOSE (STUDY DURATION: 16 WK), Route [Inhibitor]: DERMAL, Species: MOUSE): 100%, 10%, 90%, not calculated at 9 wk; 100%, 80%, 20%, not calculated at 16 wk
